Assay results taken from ChEMBL document CHEMBL1201862, “PubChem BioAssay data set” (2004).
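Test compounds were applied to cells in 96-well plates for 48 hours at 5 doses. Here, GI50 denotes the concentration required for 50% inhibition of growth.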 Active and inactive are the calls of the source. Cut-off read from the data, not from the text of the source: active = GI50 up to about 1.1 µM and inactive = higher.

Tests used:
Test in all cases: inhibition of tumour cell growth, NCI panel, 48 h
K562 = system: K562
SK-MEL-5 = system: SK-MEL-5
MDA-MB-231 = system: MDA-MB-231
SN12C = system: SN12C
786-0 = system: 786-0
A549 = system: A549
RXF 393 = system: RXF 393
MOLT-4 = system: MOLT-4
UO-31 = system: UO-31
SF-295 = system: SF-295
HOP-62 = system: HOP-62
DU-145 = system: DU-145
HT-29 = system: HT-29
CAKI-1 = system: CAKI-1
COLO 205 = system: COLO 205
SF-539 = system: SF-539
PC-3 = system: PC-3
KM12 = system: KM12
T47D = system: T47D
U-251 = system: U-251
MDA-N = system: MDA-N
OVCAR-4 = system: OVCAR-4
OVCAR-8 = system: OVCAR-8
SNB-19 = system: SNB-19
ACHN = system: ACHN
NCI/ADR-RES = system: NCI/ADR-RES
IGROV-1 = system: IGROV-1
UACC-257 = system: UACC-257
CCRF-CEM = system: CCRF-CEM
HCT-15 = system: HCT-15
NCI-H23 = system: NCI-H23
NCI-H460 = system: NCI-H460
OVCAR-3 = system: OVCAR-3
SNB-75 = system: SNB-75
HCC 2998 = system: HCC 2998
UACC-62 = system: UACC-62
SW-620 = system: SW-620
EKVX = system: EKVX
SF-268 = system: SF-268
TK-10 = system: TK-10
M14 = system: M14
SR = system: SR
HL-60 = system: HL-60
SK-OV-3 = system: SK-OV-3
NCI-H522 = system: NCI-H522
BT-549 = system: BT-549
RPMI-8226 = system: RPMI-8226
SK-MEL-28 = system: SK-MEL-28
Hs-578T = system: Hs-578T
MDA-MB-435 = system: MDA-MB-435
MCF7 = system: MCF7
NCI-H226 = system: NCI-H226
HCT-116 = system: HCT-116
LOX IMVI = system: LOX IMVI
HOP-92 = system: HOP-92
OVCAR-5 = system: OVCAR-5
SK-MEL-2 = system: SK-MEL-2
A498 = system: A498
Malme-3M = system: Malme-3M

## COC(=O)c1ccc(/C=C2\Oc3ccccc3C2=O)cc1
K562
  GI50: > 10 µM (inactive)
SK-MEL-5
  GI50: > 100 µM (inactive)
MDA-MB-231
  GI50: > 100 µM (inactive)
SN12C
  GI50: > 100 µM (inactive)
786-0
  GI50: > 100 µM (inactive)
A549
  GI50: > 100 µM (inactive)
RXF 393
  GI50: > 100 µM (inactive)
MOLT-4
  GI50: > 100 µM (inactive)
UO-31
  GI50: > 100 µM (inactive)
SF-295
  GI50: > 100 µM (inactive)
HOP-62
  GI50: > 100 µM (inactive)
DU-145
  GI50: > 100 µM (inactive)
HT-29
  GI50: > 100 µM (inactive)
CAKI-1
  GI50: 41.2 µM (inactive)
COLO 205
  GI50: > 100 µM (inactive)
SF-539
  GI50: > 100 µM (inactive)
PC-3
  GI50: > 100 µM (inactive)
KM12
  GI50: > 100 µM (inactive)
T47D
  GI50: > 100 µM (inactive)
U-251
  GI50: > 100 µM (inactive)
MDA-N
  GI50: > 100 µM (inactive)
OVCAR-4
  GI50: > 100 µM (inactive)
OVCAR-8
  GI50: > 100 µM (inactive)
SNB-19
  GI50: > 100 µM (inactive)
ACHN
  GI50: > 100 µM (inactive)
NCI/ADR-RES
  GI50: > 100 µM (inactive)
IGROV-1
  GI50: > 100 µM (inactive)
UACC-257
  GI50: > 100 µM (inactive)
CCRF-CEM
  GI50: 58.1 µM (inactive)
HCT-15
  GI50: > 100 µM
NCI-H23
  GI50: > 100 µM (inactive)
NCI-H460
  GI50: > 100 µM (inactive)
OVCAR-3
  GI50: > 100 µM (inactive)
SNB-75
  GI50: > 100 µM (inactive)
HCC 2998
  GI50: > 100 µM (inactive)
UACC-62
  GI50: > 100 µM (inactive)
SW-620
  GI50: > 100 µM (inactive)
EKVX
  GI50: > 100 µM (inactive)
SF-268
  GI50: > 100 µM (inactive)
TK-10
  GI50: > 100 µM (inactive)
M14
  GI50: > 100 µM (inactive)
SR
  GI50: > 100 µM (inactive)
HL-60
  GI50: 16.4 µM (inactive)
SK-OV-3
  GI50: > 100 µM (inactive)
NCI-H522
  GI50: 32.1 µM (inactive)
BT-549
  GI50: > 100 µM (inactive)
RPMI-8226
  GI50: > 100 µM (inactive)
SK-MEL-28
  GI50: > 100 µM (inactive)
Hs-578T
  GI50: > 100 µM (inactive)
MDA-MB-435
  GI50: > 100 µM (inactive)
MCF7
  GI50: > 100 µM (inactive)
NCI-H226
  GI50: > 100 µM (inactive)
HCT-116
  GI50: > 100 µM (inactive)

## CC1=C(C2=C(C)C(=O)C(=O)c3cc(C)ccc32)c2ccc(C)cc2C(=O)C1=O
K562
  GI50: 0.185 µM (active)
SK-MEL-5
  GI50: 0.206 µM (active)
MDA-MB-231
  GI50: 0.283 µM (active)
SN12C
  GI50: 0.197 µM (active)
786-0
  GI50: 0.318 µM (active)
A549
  GI50: 1.7 µM (inactive)
RXF 393
  GI50: 0.234 µM (active)
MOLT-4
  GI50: 0.287 µM (active)
UO-31
  GI50: 0.178 µM (active)
SF-295
  GI50: 0.194 µM (active)
HOP-62
  GI50: 0.451 µM (active)
DU-145
  GI50: 1.44 µM (inactive)
HT-29
  GI50: 0.277 µM (active)
CAKI-1
  GI50: 0.182 µM (active)
COLO 205
  GI50: 0.269 µM (active)
SF-539
  GI50: 0.182 µM (active)
LOX IMVI
  GI50: 0.207 µM (active)
PC-3
  GI50: 0.298 µM (active)
KM12
  GI50: 0.205 µM (active)
T47D
  GI50: 0.249 µM (active)
HOP-92
  GI50: 0.174 µM (active)
U-251
  GI50: 0.226 µM (active)
OVCAR-5
  GI50: 0.199 µM (active)
MDA-N
  GI50: 0.187 µM (active)
OVCAR-4
  GI50: 0.221 µM (active)
OVCAR-8
  GI50: 0.245 µM (active)
SNB-19
  GI50: 0.15 µM (active)
ACHN
  GI50: 0.189 µM (active)
NCI/ADR-RES
  GI50: 0.274 µM (active)
IGROV-1
  GI50: 0.282 µM (active)
UACC-257
  GI50: 0.193 µM (active)
CCRF-CEM
  GI50: 0.152 µM (active)
HCT-15
  GI50: 0.278 µM
NCI-H23
  GI50: 0.208 µM (active)
NCI-H460
  GI50: 0.243 µM (active)
OVCAR-3
  GI50: 0.153 µM (active)
SNB-75
  GI50: 0.236 µM (active)
HCC 2998
  GI50: 0.155 µM (active)
UACC-62
  GI50: 0.191 µM (active)
SW-620
  GI50: 0.255 µM (active)
SK-MEL-2
  GI50: 0.313 µM (active)
EKVX
  GI50: 0.28 µM (active)
SF-268
  GI50: 0.203 µM (active)
TK-10
  GI50: 0.64 µM (active)
M14
  GI50: 0.182 µM (active)
HL-60
  GI50: 0.0199 µM (active)
SK-OV-3
  GI50: 1.45 µM (inactive)
NCI-H522
  GI50: 0.21 µM (active)
BT-549
  GI50: 0.19 µM (active)
RPMI-8226
  GI50: 0.333 µM (active)
A498
  GI50: 1.59 µM (inactive)
SK-MEL-28
  GI50: 0.185 µM (active)
Malme-3M
  GI50: 0.215 µM (active)
Hs-578T
  GI50: 0.318 µM (active)
MDA-MB-435
  GI50: 0.201 µM (active)
MCF7
  GI50: 0.218 µM (active)
NCI-H226
  GI50: 1.9 µM (inactive)
HCT-116
  GI50: 0.333 µM (active)

## COc1cc(C#CC(=O)OC/C=C/c2ccc3c(c2)OCO3)cc(OC)c1OC
K562
  GI50: 28.9 µM (inactive)
SK-MEL-5
  GI50: 17.5 µM (inactive)
MDA-MB-231
  GI50: 25.8 µM (inactive)
SN12C
  GI50: 31.2 µM (inactive)
786-0
  GI50: 29.8 µM (inactive)
A549
  GI50: 33.7 µM (inactive)
RXF 393
  GI50: 12.3 µM (inactive)
UO-31
  GI50: 15.6 µM (inactive)
SF-295
  GI50: 36.1 µM (inactive)
HOP-62
  GI50: 24 µM (inactive)
DU-145
  GI50: 42.6 µM (inactive)
HT-29
  GI50: > 100 µM (inactive)
CAKI-1
  GI50: 22.1 µM (inactive)
COLO 205
  GI50: 19.1 µM (inactive)
SF-539
  GI50: 20.7 µM (inactive)
LOX IMVI
  GI50: 20.1 µM (inactive)
PC-3
  GI50: 21.8 µM (inactive)
KM12
  GI50: 30.4 µM (inactive)
T47D
  GI50: 59.6 µM (inactive)
HOP-92
  GI50: 17.8 µM (inactive)
U-251
  GI50: 29.4 µM (inactive)
OVCAR-5
  GI50: 35.6 µM (inactive)
MDA-N
  GI50: 18.5 µM (inactive)
OVCAR-4
  GI50: 59.7 µM (inactive)
OVCAR-8
  GI50: 29.1 µM (inactive)
SNB-19
  GI50: 42.9 µM (inactive)
ACHN
  GI50: 29.2 µM (inactive)
NCI/ADR-RES
  GI50: 20 µM (inactive)
UACC-257
  GI50: 26.8 µM (inactive)
CCRF-CEM
  GI50: 18.9 µM (inactive)
HCT-15
  GI50: 24.9 µM
NCI-H23
  GI50: 25.2 µM (inactive)
NCI-H460
  GI50: 24.9 µM (inactive)
OVCAR-3
  GI50: 26.5 µM (inactive)
HCC 2998
  GI50: 26.2 µM (inactive)
UACC-62
  GI50: 18.8 µM (inactive)
SW-620
  GI50: 27.5 µM (inactive)
SK-MEL-2
  GI50: 10 µM (inactive)
EKVX
  GI50: 31.6 µM (inactive)
SF-268
  GI50: 19.5 µM (inactive)
TK-10
  GI50: 21.4 µM (inactive)
M14
  GI50: 24 µM (inactive)
SR
  GI50: 16.7 µM (inactive)
HL-60
  GI50: 36.5 µM (inactive)
SK-OV-3
  GI50: 27.6 µM (inactive)
BT-549
  GI50: 19.4 µM (inactive)
RPMI-8226
  GI50: 20.5 µM (inactive)
A498
  GI50: 5.53 µM (inactive)
SK-MEL-28
  GI50: > 100 µM (inactive)
Malme-3M
  GI50: 20.7 µM (inactive)
Hs-578T
  GI50: 22.2 µM (inactive)
MDA-MB-435
  GI50: 18.5 µM (inactive)
MCF7
  GI50: 19.5 µM (inactive)
NCI-H226
  GI50: 21.4 µM (inactive)
HCT-116
  GI50: 22.7 µM (inactive)
